Test results from ChEMBL document CHEMBL3885861, “Open TG-GATES”.

Species on record: Rattus norvegicus
Assay: Open TG-GATES - Regimen: Single
Format: toxicity, organism-based, Sprague-Dawley
Parameters: regimen Single, gender Male, age 6 weeks
Settings: in vivo, po, 400 mg/kg, route gavage, dose level High; for APTT / Bas / Eos / Fbg / Hb / Ht / Lym / MCH / MCHC / MCV / Mono / Neu / PT / Plat / RBC / Ret / WBC: tissue Blood; for KIDNEY_L / KIDNEY_R / KIDNEY_TOTAL: tissue Kidney; for LIVER: tissue Liver; for A/G / ALP / ALT / AST / BUN / CRE / Ca / Cl / DBIL / GLC / IP / K / LDH / Na / PL / RALB / TBIL / TC / TG / TP / gamma-GTP: tissue Plasma

## COc1ccc(Cc2nccc3cc(OC)c(OC)cc23)cc1OC [PAPAVERINE]
3 h
  TERMINAL_BW: 228.2 g
  APTT: 23.4 s
  Bas: 0%
  Eos: 1%
  Fbg: 306.8 mg/dL
  Hb: 13.4 g/dL
  Ht: 40.3%
  Lym: 79%
  MCH: 20.7 pg
  MCHC: 33.3%
  MCV: 62 fL
  Mono: 2.4%
  Neu: 16.2%
  PT: 15.7 s
  Plat: 119 x10_4/uL
  RBC: 649.8 x10_4/ul
  Ret: 7.4%
  WBC: 64.1 x10_2/uL
  KIDNEY_L: 1 g
  KIDNEY_R: 1 g
  KIDNEY_TOTAL: 2 g
  LIVER: 9.9 g
  A/G: 1.2
  ALP: 1181 IU/L
  ALT: 39 IU/L
  AST: 66.8 IU/L
  BUN: 11.4 mg/dL
  CRE: 0.1 mg/dL
  Ca: 10.8 mg/dL
  Cl: 107.2 meq/L
  DBIL: 0 mg/dL
  GLC: 199.4 mg/dL
  IP: 9.7 mg/dL
  K: 4.1 meq/L
  LDH: 182 IU/L
  Na: 140.2 meq/L
  PL: 124 mg/dL
  RALB: 2.9 g/dL
  TBIL: 0.014 mg/dL
  TC: 75.2 mg/dL
  TG: 34 mg/dL
  TP: 5.4 g/dL
  gamma-GTP: 2.4 IU/L
6 h
  TERMINAL_BW: 223.8 g
  APTT: 22 s
  Bas: 0%
  Eos: 0.8%
  Fbg: 310.8 mg/dL
  Hb: 13.1 g/dL
  Ht: 40%
  Lym: 78%
  MCH: 20.6 pg
  MCHC: 32.9%
  MCV: 62.7 fL
  Mono: 3.6%
  Neu: 16.6%
  PT: 16 s
  Plat: 119.2 x10_4/uL
  RBC: 639 x10_4/ul
  Ret: 7.8%
  WBC: 84 x10_2/uL
  KIDNEY_L: 1 g
  KIDNEY_R: 1 g
  KIDNEY_TOTAL: 1.9 g
  LIVER: 9.2 g
  A/G: 1.2
  ALP: 1322.6 IU/L
  ALT: 36 IU/L
  AST: 73.6 IU/L
  BUN: 7.6 mg/dL
  CRE: 0.1 mg/dL
  Ca: 11.2 mg/dL
  Cl: 107.4 meq/L
  DBIL: 0.006 mg/dL
  GLC: 178.4 mg/dL
  IP: 10.2 mg/dL
  K: 4.3 meq/L
  LDH: 151.4 IU/L
  Na: 140.6 meq/L
  PL: 125.2 mg/dL
  RALB: 2.9 g/dL
  TBIL: 0.036 mg/dL
  TC: 75 mg/dL
  TG: 38.4 mg/dL
  TP: 5.3 g/dL
  gamma-GTP: 2 IU/L
9 h
  TERMINAL_BW: 221.7 g
  APTT: 23 s
  Bas: 0%
  Eos: 0.8%
  Fbg: 313.2 mg/dL
  Hb: 13.5 g/dL
  Ht: 40.5%
  Lym: 75%
  MCH: 20.8 pg
  MCHC: 33.3%
  MCV: 62.5 fL
  Mono: 2.2%
  Neu: 21%
  PT: 16.2 s
  Plat: 120.5 x10_4/uL
  RBC: 648.2 x10_4/ul
  Ret: 7.3%
  WBC: 73.1 x10_2/uL
  KIDNEY_L: 1 g
  KIDNEY_R: 1 g
  KIDNEY_TOTAL: 2 g
  LIVER: 8.5 g
  A/G: 1.3
  ALP: 1235.8 IU/L
  ALT: 26.8 IU/L
  AST: 64 IU/L
  BUN: 7.8 mg/dL
  CRE: 0.1 mg/dL
  Ca: 10.9 mg/dL
  Cl: 108.6 meq/L
  DBIL: 0.008 mg/dL
  GLC: 180.2 mg/dL
  IP: 9.5 mg/dL
  K: 4.3 meq/L
  LDH: 160 IU/L
  Na: 139.8 meq/L
  PL: 123.2 mg/dL
  RALB: 2.9 g/dL
  TBIL: 0.036 mg/dL
  TC: 68.2 mg/dL
  TG: 33.4 mg/dL
  TP: 5.3 g/dL
  gamma-GTP: 1.6 IU/L
24 h
  TERMINAL_BW: 240 g
  APTT: 21.2 s
  Bas: 0%
  Eos: 0.8%
  Fbg: 339.6 mg/dL
  Hb: 13 g/dL
  Ht: 39%
  Lym: 78.2%
  MCH: 20.8 pg
  MCHC: 33.4%
  MCV: 62.1 fL
  Mono: 2.6%
  Neu: 17.2%
  PT: 15.7 s
  Plat: 113.2 x10_4/uL
  RBC: 627.8 x10_4/ul
  Ret: 6.6%
  WBC: 86.7 x10_2/uL
  KIDNEY_L: 1 g
  KIDNEY_R: 1 g
  KIDNEY_TOTAL: 2 g
  LIVER: 11.4 g
  A/G: 1.3
  ALP: 1398.4 IU/L
  ALT: 41.2 IU/L
  AST: 66.6 IU/L
  BUN: 14 mg/dL
  CRE: 0.1 mg/dL
  Ca: 10.9 mg/dL
  Cl: 106 meq/L
  DBIL: 0 mg/dL
  GLC: 186.8 mg/dL
  IP: 7.5 mg/dL
  K: 4 meq/L
  LDH: 153.2 IU/L
  Na: 143.4 meq/L
  PL: 149.8 mg/dL
  RALB: 3.1 g/dL
  TBIL: 0.008 mg/dL
  TC: 82 mg/dL
  TG: 125.8 mg/dL
  TP: 5.4 g/dL
  gamma-GTP: 2 IU/L
